Test results taken from PubChem BioAssay (NCI).
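Five concentrations, 48 hours, 96-well plates. Abbreviation: GI50, concentration required for 50% inhibition of growth. TGI: total growth inhibition.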

Columns and labels:
Assay in all cases: growth of human tumour cells (NCI), 48 h
[1] = system: HOP-62 NSCLC
[2] = system: NCI-H23 lung
[3] = system: LOX IMVI melanoma
[4] = system: ACHN renal
[5] = system: NCI-H522 lung
[6] = system: HL-60(TB) leukemia
[7] = system: OVCAR-3 ovarian
[8] = system: SW-620 colon
[9] = system: SK-MEL-2 melanoma
[10] = system: UO-31 renal

Row | SMILES | TGI [1] [µM] | TGI [2] [µM] | TGI [3] [µM] | TGI [4] [µM] | TGI [5] [µM] | TGI [6] [µM] | TGI [7] [µM] | TGI [8] [µM] | TGI [9] [µM] | TGI [10] [µM] | GI50 [1] [µM] | GI50 [2] [µM] | GI50 [3] [µM] | GI50 [4] [µM] | GI50 [5] [µM] | GI50 [6] [µM] | GI50 [7] [µM] | GI50 [8] [µM] | GI50 [9] [µM] | GI50 [10] [µM]
1 | COc1ccc2nc(NC(=O)C(=O)C(C#N)c3ccc(CC#N)cc3)sc2c1 (stereo not given) | > 100 | > 100 | > 100 | > 100 | > 100 | > 100 | > 100 | > 100 | > 100 | > 100 | – | – | – | – | – | – | – | – | – | –
2 | C/C(CC(=O)Nc1cc(Cl)c(Cl)cc1Cl)=N\NS(=O)(=O)c1ccc(C)cc1 | > 100 | 54.6 | > 100 | 79.8 | 41.8 | 62.9 | 74.7 | > 100 | 86.8 | 52.3 | – | – | – | – | – | – | – | – | – | –
3 | C=C(C)[C@@H]1CC[C@@H]2C(=CC[C@]3(C)C([C@H](C)CC/C=C(/C)C(=O)O)CC[C@@]23C)[C@@]1(C)CCC(=O)O (stereo not given in full) | > 100 | 57.2 | 37.8 | 36.7 | 91.6 | 72.5 | 44.6 | > 100 | 45.1 | 30.7 | – | – | – | – | – | – | – | – | – | –
4 | COc1cc2cc(Oc3ccc(NC(=O)Nc4cc(C(F)(F)F)cc(C(F)(F)F)c4)cc3)c(C)nc2cc1OCCN1CCCCC1 | 3.3 | 3.32 | 3.17 | 2.99 | 3.46 | 4.67 | 3.03 | 3.27 | 3.57 | 2.55 | 1.64 | 1.75 | 1.71 | 1.63 | 1.72 | 2.25 | 1.64 | 1.79 | 1.85 | 1.28
